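The compound was tested at five concentrations on cells cultured in 96-well plates, with a 48-hour exposure period. GI50 = concentration required for 50% inhibition of growth. TGI: concentration producing complete growth inhibition.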
Legend:
Experiment in all cases: inhibition of tumour cell growth, NCI panel, 48 h
NCI-H522 lung = tested on: NCI-H522 lung
COLO 205 colon = tested on: COLO 205 colon
HT29 colon = tested on: HT29 colon
SNB-75 CNS = tested on: SNB-75 CNS
CAKI-1 renal = tested on: CAKI-1 renal
ACHN renal = tested on: ACHN renal
NCI-H23 lung = tested on: NCI-H23 lung
T-47D breast = tested on: T-47D breast
IGROV1 ovarian = tested on: IGROV1 ovarian
BT-549 breast = tested on: BT-549 breast

SMILES | TGI (NCI-H522 lung) [µM] | TGI (COLO 205 colon) [µM] | TGI (HT29 colon) [µM] | TGI (SNB-75 CNS) [µM] | TGI (CAKI-1 renal) [µM] | TGI (ACHN renal) [µM] | TGI (NCI-H23 lung) [µM] | GI50 (NCI-H522 lung) [µM] | GI50 (T-47D breast) [µM] | TGI (T-47D breast) [µM] | GI50 (COLO 205 colon) [µM] | GI50 (SNB-75 CNS) [µM] | GI50 (IGROV1 ovarian) [µM] | TGI (IGROV1 ovarian) [µM] | GI50 (CAKI-1 renal) [µM] | GI50 (ACHN renal) [µM] | GI50 (NCI-H23 lung) [µM] | GI50 (BT-549 breast) [µM] | TGI (BT-549 breast) [µM] | GI50 (HT29 colon) [µM]
C[C@]1(CO)CCC[C@@]2(C)C1CC[C@H]1CC3C[C@]12CC[C@]3(C)O (some centres not stated) | 31.1 | > 100 | > 100 | > 100 | > 100 | > 100 | > 100 | – | – | – | – | – | – | – | – | – | – | – | – | –
CCC1CCc2nc3sc(C(=O)Nc4cccc(F)c4)c(N)c3cc2C1 (configuration not stated) | > 100 | > 100 | – | > 100 | > 100 | > 100 | > 100 | > 100 | > 100 | > 100 | 51.8 | 9.19 | > 100 | > 100 | 0.867 | > 100 | > 100 | > 100 | > 100 | –
COC1OC(COCc2ccc(Cl)cc2)C(OCc2ccc(Cl)cc2)C1N=[N+]=[N-] (configuration not stated) | > 100 | > 100 | > 100 | > 100 | > 100 | > 100 | > 100 | – | – | – | – | – | – | > 100 | – | – | – | – | – | –
Clc1ccc(C2SCc3nc4ccccc4n32)cc1Cl (configuration not stated) | 25 | 38.3 | 29.9 | 14.3 | 27 | 29.1 | 27.5 | – | – | – | – | – | – | 38.8 | – | – | – | – | – | –
COc1cc2c3c(c1OC)-c1c(ccc4c1OCO4)CC3(C#N)N(C(=O)c1ccccc1)CC2 (configuration not stated) | > 100 | > 100 | > 100 | 49.4 | > 100 | – | > 100 | – | – | – | – | – | – | > 100 | – | – | – | – | – | –
CC(=O)c1ccc(NC(=O)C(=O)Nn2c(=S)[nH]c3ccccc3c2=O)cc1 | > 100 | > 100 | > 100 | > 100 | > 100 | > 100 | > 100 | – | – | – | – | – | – | > 100 | – | – | – | – | – | –
CC1C[C@@H]2C(=O)NC(=O)[C@@H]2c2c1c1ccccc1n2C (some centres not stated) | > 100 | > 100 | > 100 | > 100 | > 100 | – | > 100 | – | – | – | – | – | – | > 100 | – | – | – | – | – | –
O=C(Nc1nc2ncn(CCNCc3ccccc3)c2c(=O)[nH]1)c1ccccc1 | > 100 | > 100 | > 100 | > 100 | > 100 | > 100 | – | – | – | – | – | – | – | > 100 | – | – | – | – | – | –
N#Cc1c(N)nc(N2CCOCC2)c(C#N)c1-c1cccnc1 | 81.7 | 96.2 | > 100 | 43.6 | 95 | > 100 | – | 22.3 | 34 | 66.7 | 36 | 11.1 | 17.2 | 44.8 | 32.6 | 48.7 | – | > 100 | > 100 | > 100
O=[N+]([O-])c1cccc(C2ON2C2CCCCC2)c1 (configuration not stated) | 33.5 | 32.6 | 28 | > 100 | 58.7 | 32 | 45.1 | – | – | – | – | – | – | 44.8 | – | – | – | – | – | –
Cc1cc(C)nc(NS(=O)(=O)c2ccc(Nc3c4ccc(Cl)cc4nc4c(C(=O)Nc5ccc(S(N)(=O)=O)cc5)cccc34)cc2)n1 | 24.1 | – | 52.4 | > 100 | – | > 100 | 43 | – | – | – | – | – | – | – | – | – | – | – | – | –
COC(=O)c1c(N)n[nH]c1N | > 100 | > 100 | – | > 100 | > 100 | – | > 100 | – | – | – | – | – | – | > 100 | – | – | – | – | – | –
O=C1c2ccccc2C(=O)c2c1ccc(C1C(=O)c3ccccc3C1=O)c2-c1c(C2C(=O)c3ccccc3C2=O)ccc2c1C(=O)c1ccccc1C2=O | > 100 | > 100 | > 100 | > 100 | > 100 | > 100 | – | – | – | > 100 | – | – | – | > 100 | – | – | – | – | > 100 | –
CCC1CN2CCc3c([nH]c4ccccc34)C2C[C@@H]1CC(=O)N(C)C (some centres not stated) | > 100 | > 100 | > 100 | 92.6 | – | > 100 | > 100 | – | – | – | – | – | – | > 100 | – | – | – | – | – | –
CCOC(=O)C1=C(C)N(c2ccc(C)cc2)C2=C(C(=O)N(c3ccccc3)C2c2ccccc2)C1c1ccccc1 (configuration not stated) | – | > 25 | > 25 | > 25 | – | > 25 | > 25 | – | – | – | – | – | – | > 25 | – | – | – | – | – | –
O=C(Cn1ccnc1[N+](=O)[O-])c1ccc(F)cc1 | > 100 | > 100 | > 100 | > 100 | > 100 | > 100 | > 100 | – | – | – | – | – | – | > 100 | – | – | – | – | – | –
Nc1nc(-c2ccccc2)nc2c1[n+]([O-])c1ccccc1[n+]2[O-] | > 100 | > 100 | > 100 | – | > 100 | > 100 | > 100 | – | – | > 100 | – | – | – | > 100 | – | – | – | – | > 100 | –
CCCCCCCCCCCCCP(=O)(O)OCC | > 100 | > 100 | > 100 | > 100 | – | > 100 | > 100 | – | – | – | – | – | – | > 100 | – | – | – | – | – | –
CCc1cccc(C(C)C)c1N1C(=O)C(=O)C(c2nc3ccccc3s2)C(=O)C1=O | 48.6 | > 50 | > 50 | > 50 | > 50 | > 50 | > 50 | – | – | – | – | – | – | > 50 | – | – | – | – | – | –
C=C1CCC2C(C)(C)CCC[C@]2(C)[C@H]1CO (some centres not stated) | > 100 | > 100 | > 100 | – | > 100 | > 100 | > 100 | 67.6 | 41.7 | > 100 | 42.1 | – | > 100 | > 100 | > 100 | 97.9 | 46.1 | 47.9 | > 100 | 52.7
Fc1ccccc1C1CC(c2ccc3ccccc3c2)=Nc2ccccc2S1 (configuration not stated) | > 100 | > 100 | > 100 | – | > 100 | > 100 | > 100 | – | – | – | – | – | – | > 100 | – | – | – | – | – | –
CC1(C)Cc2cc(C(=O)O)c3c(c2C1=O)COCC3 | > 100 | > 100 | > 100 | > 100 | > 100 | > 100 | > 100 | – | – | – | – | – | – | > 100 | – | – | – | – | – | –
CCCCCCCCCc1cccc(N2C(N)=NC(N)=NC2(C)C)c1 | – | 2.38 | 1.33 | 25.9 | 2.5 | 1.06 | 0.277 | – | – | 5.75 | – | – | – | – | – | – | – | – | 3.86 | –

From PubChem BioAssay (NCI)
